Results published in BindingDB's records for doi:10.1021/cb500355c (2015).

Molecular target: RAC-alpha serine/threonine-protein kinase [E49C,C296S,C310S,C344S] (Homo sapiens, UniProt P31749, C296S/C310S/C344S/E49C)
Assay: iFLik Assay
Details: pH 7.4
Method: Labeled Akt1 was diluted to 200 nM in the measurement buffer consisting of 50 mMHEPES pH 7.4, 200 mM NaCl, and 0.01% Triton-X 100. Dilution series of candidate compounds were prepared in DMSO at 21× the final desired concentration. Compounds (0.5 μL) were then mixed with labeled Akt1 (10 μL) in triplicate and with measurement buffer alone (background fluorescence control) in quadruplicate at 12different concentrations. The final compound concentrations ranged from 0.8 nM to 500 μM and each well contained 5% v/v DMSO after mixing. Plates were then covered with an adhesive plastic foil and incubated for 2 h at RT prior to measurement of emission intensities at fluorophore-specific wavelengths

RAC-alpha serine/threonine-protein kinase [E49C,C296S,C310S,C344S], sequence (P31749 whole entry E49C/C296S/C310S/C344S): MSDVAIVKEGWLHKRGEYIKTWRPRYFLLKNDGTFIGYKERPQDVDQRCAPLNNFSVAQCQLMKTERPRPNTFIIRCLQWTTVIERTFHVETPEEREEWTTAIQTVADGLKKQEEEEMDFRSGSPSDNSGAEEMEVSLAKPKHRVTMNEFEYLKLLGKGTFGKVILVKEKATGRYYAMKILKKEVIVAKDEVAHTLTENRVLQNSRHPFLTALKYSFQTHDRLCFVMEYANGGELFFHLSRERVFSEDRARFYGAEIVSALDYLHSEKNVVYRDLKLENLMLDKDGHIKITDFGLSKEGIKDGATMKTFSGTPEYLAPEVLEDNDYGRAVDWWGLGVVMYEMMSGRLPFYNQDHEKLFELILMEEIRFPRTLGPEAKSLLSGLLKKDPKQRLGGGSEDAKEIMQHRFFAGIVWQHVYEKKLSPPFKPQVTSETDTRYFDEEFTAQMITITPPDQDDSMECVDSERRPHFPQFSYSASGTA

SMILES	Kd
O=c1[nH]ccc2nc(-c3ccc(CN4CCc5ccccc5C4)cc3)c(-c3ccccc3)cc12 [2-(4-((3,4-Dihydroisoquinolin-2(1H)-yl)methyl)phenyl)-3-phenyl-1,6-naphthyridin-5(6H)-one (7c)]	6 µM
O=c1[nH]ccc2nc(-c3ccc(CN4CCC(n5c(=O)[nH]c6ccccc65)CC4)cc3)c(-c3ccccc3)cc12 [2-(4-((4-(2-Oxo-2,3-dihydro-1H-benzo[d]imidazol-1-yl)piperidin-1-yl)methyl)phenyl)-3-phenyl-1,6-naphthyridin-5(6H)-one (7a)]	0.41 µM
COc1ccc(N2CCN(Cc3ccc(-c4nc5cc[nH]c(=O)c5cc4-c4ccccc4)cc3)CC2)cc1 [2-(4-((4-(4-Methoxyphenyl)piperazin-1-yl)methyl)phenyl)-3-phenyl-1,6-naphthyridin-5(6H)-one (7e)]	7.2 µM
O=c1[nH]ccc2nc(-c3ccc(CN4CCC(n5c(=O)[nH]c6cc(Cl)ccc65)CC4)cc3)c(-c3ccccc3)cc12 [2-(4-((4-(5-Chloro-2-oxo-2,3-dihydro-1H-benzo[d]imidazol-1-yl)piperidin-1-yl)methyl)phenyl)-3-phenyl-1,6-naphthyridin-5(6H)-one (7b)]	0.15 µM
O=c1[nH]ccc2nc(-c3ccc(CN4CCN(c5ncccn5)CC4)cc3)c(-c3ccccc3)cc12 [3-Phenyl-2-(4-((4-(pyrimidin-2-yl)piperazin-1-yl)methyl)phenyl)-1,6-naphthyridin-5(6H)-one (7f)]	1.1 µM
O=C(C1CCCO1)N1CCN(Cc2ccc(-c3nc4cc[nH]c(=O)c4cc3-c3ccccc3)cc2)CC1 (centres undefined) [3-Phenyl-2-(4-((4-(tetrahydrofuran-2-carbonyl)piperazin-1-yl)methyl)phenyl)-1,6-naphthyridin-5(6H)-one (7g)]	8 µM
c1ccc(-c2cn(-c3ccccc3)c3ncnc(NCc4cccs4)c23)cc1 [5,7-diphenyl-N-(thiophen-2-ylmethyl)-7H-pyrrolo[2,3-d]pyrimidin-4-amine (8d)]	2.2 µM
Cc1ccc(-n2cc(-c3ccccc3)c3c(NCc4cccs4)ncnc32)cc1Cl [7-(3-chloro-4-methylphenyl)-5-phenyl-N-(thiophen-2-ylmethyl)-7H-pyrrolo[2,3-d]pyrimidin-4-amine (8g)]	264 µM
Cc1cccc(-n2cc(-c3ccccc3)c3c(NCc4cccs4)ncnc32)c1 [7-(3-methylphenyl)-5-phenyl-N-(thiophen-2-ylmethyl)-7H-pyrrolo[2,3-d]pyrimidin-4-amine (8e)]	99 µM
Fc1ccc(-n2cc(-c3ccccc3)c3c(NCc4ccccn4)ncnc32)cc1 [7-(4-fluorophenyl)-5-phenyl-N-(pyridin-2-ylmethyl)-7H-pyrrolo[2,3-d]pyrimidin-4-amine (8c)]	20 µM
Cc1ccc(-n2cc(-c3ccccc3)c3c(NCc4cccnc4)ncnc32)cc1 [7-(4-methylphenyl)-5-phenyl-N-(pyridin-3-ylmethyl)-7H-pyrrolo[2,3-d]pyrimidin-4-amine (8b)]	7.8 µM
Cc1ccc(-n2cc(-c3ccccc3)c3c(NCc4cccs4)ncnc32)cc1 [7-(4-methylphenyl)-5-phenyl-N-(thiophen-2-ylmethyl)-7H-pyrrolo[2,3-d]pyrimidin-4-amine (8a)]	2.2 µM
COC(=O)C1CCN(Cc2ccc(-c3nc4cc[nH]c(=O)c4cc3-c3ccccc3)cc2)CC1 [Methyl 1-(4-(5-oxo-3-phenyl-5,6-dihydro-1,6-naphthyridin-2-yl)benzyl)piperidine-4-carboxylate (7d)]	0.9 µM
Cc1ccc(-n2cc(-c3ccccc3)c3c(NCc4ccccc4)ncnc32)cc1 [N-benzyl-7-(4-methylphenyl)-5-phenyl-7H-pyrrolo[2,3-d]pyrimidin-4-amine (8f)]	6 µM
